Measurements taken from ChEMBL document CHEMBL1201862, “PubChem BioAssay data set” (2004).
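Cultured in 96-well plates, cells were exposed to test compound for 48 hours across five concentrations. The concentration for 50% growth inhibition is given as GI50.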 Activity calls are given as the source filed them. Cut-off read from the data, not from the text of the source: active = GI50 up to about 1.1 µM and inactive = higher.

Tests used:
Assay in all cases: DTP human tumour cell line panel, 48 h
[1] = tested on: 786-0
[2] = tested on: CAKI-1
[3] = tested on: DU-145
[4] = tested on: HCT-15
[5] = tested on: HL-60
[6] = tested on: HOP-92
[7] = tested on: IGROV-1
[8] = tested on: K562
[9] = tested on: KM12
[10] = tested on: LOX IMVI
[11] = tested on: MDA-N
[12] = tested on: NCI-H226
[13] = tested on: NCI/ADR-RES
[14] = tested on: OVCAR-3
[15] = tested on: OVCAR-4
[16] = tested on: OVCAR-8
[17] = tested on: SF-539
[18] = tested on: SK-MEL-2
[19] = tested on: U-251
[20] = tested on: MDA-MB-231

Measured: GI50

Cc1cc(S(=O)(=O)Nc2nc(N)nc(N3CCOCC3)n2)c(SCC(=O)O)cc1Cl
inactive: [1] > 10 µM | [2] > 10 µM | [3] > 10 µM | [5] > 10 µM | [6] > 10 µM | [7] > 10 µM | [8] > 10 µM | [9] > 10 µM | [10] > 10 µM | [11] > 10 µM | [12] > 10 µM | [13] > 10 µM | [14] > 10 µM | [15] > 10 µM | [16] > 10 µM | [17] > 10 µM | [18] > 10 µM | [19] > 10 µM
> 10 µM: [4]

COc1cc(COC(=O)NC(Cc2cccs2)C(=O)O)c([N+](=O)[O-])cc1OC (stereo not drawn)
inactive: [1] > 100 µM | [3] > 100 µM | [5] > 100 µM | [6] > 100 µM | [7] > 100 µM | [8] > 100 µM | [9] > 100 µM | [11] > 100 µM | [12] > 100 µM | [13] > 100 µM | [14] > 100 µM | [16] > 100 µM | [17] > 100 µM | [19] > 100 µM
> 100 µM: [4]

COc1cc(C2NCCC(c3ccccc3)(c3ccccc3)N2)cc(OC)c1OC (stereo not drawn)
38.5 µM: [4]
inactive: [1] 22.6 µM | [3] 97.3 µM | [5] 5.83 µM | [6] 3.52 µM | [7] 27.2 µM | [9] 12.6 µM | [10] 13.5 µM | [20] 68.9 µM | [12] 12.7 µM | [13] > 100 µM | [15] 81.1 µM | [16] 60.4 µM | [17] 11.3 µM | [19] 32.9 µM

O=C(O)CCC(=O)N1C/C(=C\c2ccccc2)C(=O)/C(=C/c2ccccc2)C1
inactive: [1] 2.52 µM | [2] 4.71 µM | [5] 2.21 µM | [6] 16.3 µM | [7] 3.45 µM | [8] 1.19 µM | [9] 1.82 µM | [10] 1.68 µM | [12] 18 µM | [14] 2.41 µM | [15] 2.3 µM | [16] 3.09 µM | [17] 1.82 µM | [18] 1.82 µM | [19] 1.78 µM
2.06 µM: [4]

COc1cc(Nc2cnc3cc(F)c(F)cc3n2)cc(OC)c1
> 100 µM: [4]
inactive: [1] 37.9 µM | [2] > 100 µM | [3] > 100 µM | [5] > 100 µM | [6] 25.8 µM | [7] > 100 µM | [9] > 100 µM | [10] 67.3 µM | [11] > 100 µM | [12] > 100 µM | [13] 90.4 µM | [14] > 100 µM | [15] > 100 µM | [16] > 100 µM | [17] 71 µM | [18] > 100 µM | [19] 37.9 µM

O=C(CSCC(=O)N/N=C\c1cccc([N+](=O)[O-])c1)N/N=C\c1cccc([N+](=O)[O-])c1
25.5 µM: [4]
inactive: [1] 18.2 µM | [2] 23.3 µM | [3] 54.1 µM | [5] > 100 µM | [6] 32.4 µM | [7] 23.1 µM | [9] > 100 µM | [10] 53.1 µM | [20] 18.9 µM | [12] > 100 µM | [13] 19.2 µM | [14] 22.9 µM | [15] > 100 µM | [16] 31.3 µM | [17] 24 µM | [18] 37.3 µM | [19] 13.5 µM

CCOC(=O)/C1=C(\C)N(c2ccc(C)cc2)C(=O)c2ccccc2C(=O)c2c(OC(C)=O)ccc(OC(C)=O)c21
inactive: [1] 34.8 µM | [2] 13.3 µM | [3] 31.8 µM | [5] 20 µM | [6] 29.9 µM | [7] 4.01 µM | [8] 16.1 µM | [9] 15 µM | [10] 14.4 µM | [20] 12.9 µM | [12] 14.6 µM | [13] 19.2 µM | [14] 16.5 µM | [15] 12.8 µM | [16] 36.8 µM | [17] 25.8 µM | [18] 24 µM | [19] 24.9 µM
16.4 µM: [4]

CCOC(=O)CC1=N/C(=N/c2cc(Cl)ccc2Cl)SC1
59.4 µM: [4]
inactive: [1] > 100 µM | [2] > 100 µM | [5] > 100 µM | [6] > 100 µM | [7] > 100 µM | [8] 42.5 µM | [9] > 100 µM | [10] 70.5 µM | [12] > 100 µM | [14] 62.4 µM | [15] > 100 µM | [16] > 100 µM | [17] > 100 µM | [18] > 100 µM | [19] > 100 µM

O=CC1C(Cl)=Nc2nc3ccccc3n2C1c1ccc([N+](=O)[O-])cc1 (stereo not drawn)
2.93 µM: [4]
inactive: [1] 4.3 µM | [2] 3.09 µM | [3] 4.74 µM | [5] 3.28 µM | [6] 5.45 µM | [7] 12.3 µM | [8] 1.8 µM | [9] 24.8 µM | [10] 2.18 µM | [20] 14.9 µM | [12] 3.33 µM | [13] 40.5 µM | [14] 3.85 µM | [15] 13.6 µM | [16] 3.95 µM | [17] 20.2 µM | [18] 6.03 µM | [19] 5.52 µM

CC(=O)Nc1ccc(/C=c2\sc3nnc(-c4cccnc4)n3c2=O)cc1
17.6 µM: [4]
inactive: [1] 16.6 µM | [2] 17.9 µM | [5] 16.4 µM | [6] 12 µM | [7] 16.9 µM | [8] 22.4 µM | [9] 16.8 µM | [10] 16.5 µM | [12] 49.7 µM | [14] 17.8 µM | [15] 14.6 µM | [16] 17.6 µM | [17] 18.7 µM | [18] 20.9 µM | [19] 17.8 µM

CN(C)c1nc(N)nc(CS)n1
56.4 µM: [4]
inactive: [1] > 100 µM | [2] > 100 µM | [3] > 100 µM | [5] 23.3 µM | [6] > 100 µM | [7] > 100 µM | [8] 29.9 µM | [9] > 100 µM | [10] 42.3 µM | [20] 45.6 µM | [12] > 100 µM | [13] > 100 µM | [14] > 100 µM | [15] 80.7 µM | [16] > 100 µM | [17] > 100 µM | [18] 36.2 µM | [19] 89.5 µM

CSC1=C(C(=O)N(COCC[Si](C)(C)C)c2ccccc2Br)CCC(C(C)(C)C)C1 (stereo not drawn)
inactive: [1] 13.3 µM | [2] 1.83 µM | [3] 22.4 µM | [5] 3.24 µM | [6] 12.9 µM | [7] 23.2 µM | [8] 8.28 µM | [9] 14.2 µM | [10] 15.7 µM | [20] 10.3 µM | [12] 13.9 µM | [13] 13.7 µM | [14] 10.7 µM | [15] 10.5 µM | [16] 17.8 µM | [18] 14 µM | [19] 11.6 µM
11.7 µM: [4]

CCCC1=NC(C(F)(F)F)(C(F)(F)F)N=C(N2CCOCC2)O1
> 100 µM: [4]
inactive: [1] > 100 µM | [2] 63.4 µM | [3] > 100 µM | [5] > 100 µM | [6] 25.3 µM | [7] > 100 µM | [8] > 100 µM | [9] > 100 µM | [10] > 100 µM | [20] > 100 µM | [12] > 100 µM | [13] > 100 µM | [14] > 100 µM | [15] 80.2 µM | [16] > 100 µM | [17] > 100 µM | [18] > 100 µM | [19] > 100 µM

Cc1cc2nc3c(C#N)c4c(c(Cl)n3c2cc1C)CCC4
17.6 µM: [4]
inactive: [1] 16 µM | [2] 18.5 µM | [6] 31.8 µM | [9] 38.5 µM | [10] 18.1 µM | [20] 15.9 µM | [12] 74.1 µM | [13] 18.3 µM | [14] 21.3 µM | [15] 43 µM | [16] 20.2 µM | [17] 25.3 µM | [19] 15.1 µM

COc1ccc(C2=Nc3ccccc3NC(=O)C2)cc1
inactive: [1] 33.3 µM | [2] > 100 µM | [5] 21.8 µM | [6] 21 µM | [7] 34.6 µM | [8] > 100 µM | [9] > 100 µM | [10] 18.3 µM | [12] > 100 µM | [14] 64 µM | [15] > 100 µM | [16] 40.5 µM | [17] 29.4 µM | [18] 51.5 µM | [19] 28 µM
51.9 µM: [4]

Cn1c(-c2cccc(N)c2)[n+](C)c2ccccc21
> 100 µM: [4]
inactive: [1] > 100 µM | [2] > 100 µM | [3] > 100 µM | [5] 36.1 µM | [6] > 100 µM | [7] > 100 µM | [8] > 100 µM | [9] > 100 µM | [10] > 100 µM | [20] > 100 µM | [12] > 100 µM | [13] > 100 µM | [14] > 100 µM | [15] > 100 µM | [16] > 100 µM | [17] > 100 µM | [18] > 100 µM | [19] > 10 µM

NC(=O)c1cc(-c2ccc(-n3ccnc3)cc2)nnc1O
inactive: [1] > 100 µM | [2] > 100 µM | [3] > 100 µM | [5] > 100 µM | [6] > 100 µM | [7] > 100 µM | [11] > 100 µM | [15] > 100 µM | [16] > 100 µM | [17] > 100 µM | [19] > 100 µM
> 100 µM: [4]
